In PubChem BioAssay AID1963960 (Molecular Pharmacology Branch, DTP, NCI, 2024):

System: MDA-MB-468 spheroids with HUVEC/MSC, viability
Experiment: Anticancer human tumor MDA-MB-468 cell line growth inhibition [PI3K];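 note: spheroids exposed to agents for seven days before readout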;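 for viability, T/C: 100% = DMSO vehicle control viability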
Conditions: for IC50: curve of first compound; for viability, T/C: stronger effect = lower value
How it was run: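 Tumor cells grown as multi-cell spheroids with HUVEC endothelial cells and MSC fibroblast-like stroma were treated with targeted agents combined with inavolisib, alpelisib, duvelisib or copanlisib. Doses fell in half-log steps from near clinical Cmax, else from 10 microM. Viability was measured.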

## CC(=O)c1c(C)c2cnc(Nc3ccc(N4CCNCC4)cn3)nc2n(C2CCCC2)c1=O + Cc1nc(NC(=O)N2CCCC2C(N)=O)sc1-c1ccnc(C(C)(C)C(F)(F)F)c1
Second compound 0.0316 µM
  IC50: > 100 nM
Second compound 0.1 µM
  IC50: > 100 nM
Second compound 0.316 µM
  IC50: > 100 nM
Second compound 1 µM
  IC50: > 100 nM
Second compound 3.16 µM
  IC50: > 100 nM
Second compound 10 µM
  IC50: < 0.316 nM
Second compound 0.0316 µM, first compound 0.000316 µM
  viability, T/C: 91.5%
Second compound 0.0316 µM, first compound 0.001 µM
  viability, T/C: 92.1%
Second compound 0.0316 µM, first compound 0.00316 µM
  viability, T/C: 74.8%
Second compound 0.0316 µM, first compound 0.01 µM
  viability, T/C: 93.4%
Second compound 0.0316 µM, first compound 0.0316 µM
  viability, T/C: 70.7%
Second compound 0.0316 µM, first compound 0.1 µM
  viability, T/C: 70.2%
Second compound 0.1 µM, first compound 0.000316 µM
  viability, T/C: 88.3%
Second compound 0.1 µM, first compound 0.001 µM
  viability, T/C: 92.2%
Second compound 0.1 µM, first compound 0.00316 µM
  viability, T/C: 86.5%
Second compound 0.1 µM, first compound 0.01 µM
  viability, T/C: 97%
Second compound 0.1 µM, first compound 0.0316 µM
  viability, T/C: 61.6%
Second compound 0.1 µM, first compound 0.1 µM
  viability, T/C: 67.2%
Second compound 0.316 µM, first compound 0.000316 µM
  viability, T/C: 96.2%
Second compound 0.316 µM, first compound 0.001 µM
  viability, T/C: 95%
Second compound 0.316 µM, first compound 0.00316 µM
  viability, T/C: 74.8%
Second compound 0.316 µM, first compound 0.01 µM
  viability, T/C: 91.9%
Second compound 0.316 µM, first compound 0.0316 µM
  viability, T/C: 72.5%
Second compound 0.316 µM, first compound 0.1 µM
  viability, T/C: 67.6%
Second compound 1 µM, first compound 0.000316 µM
  viability, T/C: 90.1%
Second compound 1 µM, first compound 0.001 µM
  viability, T/C: 75.7%
Second compound 1 µM, first compound 0.00316 µM
  viability, T/C: 73.5%
Second compound 1 µM, first compound 0.01 µM
  viability, T/C: 75.2%
Second compound 1 µM, first compound 0.0316 µM
  viability, T/C: 75.6%
Second compound 1 µM, first compound 0.1 µM
  viability, T/C: 76.8%
Second compound 3.16 µM, first compound 0.000316 µM
  viability, T/C: 74.9%
Second compound 3.16 µM, first compound 0.001 µM
  viability, T/C: 60.4%
Second compound 3.16 µM, first compound 0.00316 µM
  viability, T/C: 57.5%
Second compound 3.16 µM, first compound 0.01 µM
  viability, T/C: 68.8%
Second compound 3.16 µM, first compound 0.0316 µM
  viability, T/C: 55.4%
Second compound 3.16 µM, first compound 0.1 µM
  viability, T/C: 55.2%
Second compound 10 µM, first compound 0.000316 µM
  viability, T/C: 32.1%
Second compound 10 µM, first compound 0.001 µM
  viability, T/C: 24.2%
Second compound 10 µM, first compound 0.00316 µM
  viability, T/C: 31.2%
Second compound 10 µM, first compound 0.01 µM
  viability, T/C: 28.6%
Second compound 10 µM, first compound 0.0316 µM
  viability, T/C: 29.5%
Second compound 10 µM, first compound 0.1 µM
  viability, T/C: 27.6%
